For assay [1], the target named is T1, PDE2 (cGMP-dependent 3',5'-cyclic phosphodiesterase; PDE2A) (Homo sapiens, UniProt O00408). The experiment in a line: MicroScale Thermophoresis, 12-concentration dilution. It is filed as binding. On the technique in general: In MST a laser heats a spot of the sample, and binding alters the fluorescence response.
The target in assay [2] is T1, PDE2 (cGMP-dependent 3',5'-cyclic phosphodiesterase; PDE2A). Briefly: biochemical.

Some results are limits rather than exact numbers.

T1 sequence (O00408 2-941): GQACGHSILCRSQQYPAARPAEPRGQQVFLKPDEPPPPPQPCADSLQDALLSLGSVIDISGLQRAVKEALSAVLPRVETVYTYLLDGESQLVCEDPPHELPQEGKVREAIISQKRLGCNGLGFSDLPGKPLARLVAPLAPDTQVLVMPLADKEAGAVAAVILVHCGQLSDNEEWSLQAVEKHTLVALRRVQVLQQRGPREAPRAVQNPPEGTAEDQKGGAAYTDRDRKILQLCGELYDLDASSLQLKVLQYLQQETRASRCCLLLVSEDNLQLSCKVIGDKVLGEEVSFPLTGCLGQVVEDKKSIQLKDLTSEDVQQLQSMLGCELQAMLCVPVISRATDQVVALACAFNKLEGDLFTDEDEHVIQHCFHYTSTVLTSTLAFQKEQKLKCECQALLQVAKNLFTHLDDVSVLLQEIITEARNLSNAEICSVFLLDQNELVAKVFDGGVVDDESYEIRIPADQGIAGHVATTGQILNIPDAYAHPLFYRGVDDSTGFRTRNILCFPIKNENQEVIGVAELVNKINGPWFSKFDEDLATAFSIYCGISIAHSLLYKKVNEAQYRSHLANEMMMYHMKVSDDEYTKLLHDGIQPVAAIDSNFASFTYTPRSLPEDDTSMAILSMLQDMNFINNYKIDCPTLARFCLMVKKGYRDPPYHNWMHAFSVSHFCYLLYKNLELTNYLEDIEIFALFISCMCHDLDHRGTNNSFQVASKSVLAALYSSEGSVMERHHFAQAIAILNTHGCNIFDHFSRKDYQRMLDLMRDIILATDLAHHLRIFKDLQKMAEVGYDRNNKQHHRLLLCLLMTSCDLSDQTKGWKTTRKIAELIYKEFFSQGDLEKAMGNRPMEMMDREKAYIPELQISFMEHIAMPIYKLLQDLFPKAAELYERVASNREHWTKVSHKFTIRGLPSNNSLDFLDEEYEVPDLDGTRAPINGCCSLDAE

Compound `Cc1nccc(C(=O)Nc2[nH]ncc2-c2cccc(Cl)c2)n1` [Z973817294] came in with a Kd in assay [1] above 100 µM.

As to `CSc1nc(Cl)c(C)c(NCC2CCOC2)n1` (stereo not shown) [Z3216015031], the values for the Kd in assay [1] and in assay [2] were 14.2 µM and 12.8 µM, respectively.

Regarding `O=C(O)c1ccc(C=C2Cc3c(O)cccc3C2=O)cc1` [Z217160080], the Kd in assay [1] (read-out: apparent KD, dye-labelled PDE2, weak binder, no KD fit) was above 100 µM.

With `CCn1c(=O)c(=O)[nH]c2cc(C(=O)Nc3nc(-c4cccnc4)cs3)ccc21` [Z29458849], the Kd in assay [1] (dye-labelled PDE2, 1:1 fit) is 24.9 µM; in assay [2] (binder), 21.1 µM.

In the case of `O=C(Nc1ccc(Cl)cc1F)c1ccc(-n2cnc3ccccc32)cc1` [Z87546752], the Kd in assay [1] was above 100 µM.

For `CSc1nc2ccccc2c(=O)n1-c1ccc(F)cc1F` [Z19056583], the Kd in assay [1] stood at 10.1 µM; in assay [2], 9.58 µM.

For the compound `CCSc1nc2ccccc2c2nc(C)nn12` [Z226974122], the Kd in assay [1] is above 100 µM.

The record behind these values is paper doi:10.1101/2020.04.22.021360v1 (biorxiv, 2020).
